#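 Following 48 hours of exposure in 96-well plates, responses at five concentrations were used to interpolate endpoints linearly. GI50: concentration for 50% inhibition of growth. TGI marks complete inhibition of growth.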
# Key:
# Test in all cases: NCI anticancer screen, dose series, 48 h
# 786-0 renal = tested on: 786-0 renal
# A498 renal = tested on: A498 renal
# A549 NSCLC = tested on: A549 NSCLC
# BT-549 breast = tested on: BT-549 breast
# CAKI-1 renal = tested on: CAKI-1 renal
# CCRF-CEM leukemia = tested on: CCRF-CEM leukemia
# COLO 205 colon = tested on: COLO 205 colon
# DU-145 prostate = tested on: DU-145 prostate
# EKVX NSCLC = tested on: EKVX NSCLC
# HCT-116 colon = tested on: HCT-116 colon
# HCT-15 colon = tested on: HCT-15 colon
# HL-60(TB) leukemia = tested on: HL-60(TB) leukemia
# HOP-62 NSCLC = tested on: HOP-62 NSCLC
# HOP-92 NSCLC = tested on: HOP-92 NSCLC
# HS 578T breast = tested on: HS 578T breast
# HT29 colon = tested on: HT29 colon
# IGROV1 ovarian = tested on: IGROV1 ovarian
# K-562 leukemia = tested on: K-562 leukemia
# KM12 colon = tested on: KM12 colon
# LOX IMVI melanoma = tested on: LOX IMVI melanoma
# M14 melanoma = tested on: M14 melanoma
# MALME-3M melanoma = tested on: MALME-3M melanoma
# MCF7 breast = tested on: MCF7 breast
# MDA-MB-231 breast = tested on: MDA-MB-231 breast
# MOLT-4 leukemia = tested on: MOLT-4 leukemia
# NCI-H226 lung = tested on: NCI-H226 lung
# NCI-H23 lung = tested on: NCI-H23 lung
# NCI-H460 lung = tested on: NCI-H460 lung
# NCI-H522 lung = tested on: NCI-H522 lung
# NCI/ADR-RES ovarian = tested on: NCI/ADR-RES ovarian
# OVCAR-3 ovarian = tested on: OVCAR-3 ovarian
# OVCAR-8 ovarian = tested on: OVCAR-8 ovarian
# PC-3 prostate = tested on: PC-3 prostate
# RPMI-8226 leukemia = tested on: RPMI-8226 leukemia
# RXF 393 renal = tested on: RXF 393 renal
# SF-268 CNS = tested on: SF-268 CNS
# SF-295 CNS = tested on: SF-295 CNS
# SF-539 CNS = tested on: SF-539 CNS
# SK-MEL-2 melanoma = tested on: SK-MEL-2 melanoma
# SK-MEL-28 melanoma = tested on: SK-MEL-28 melanoma
# SK-MEL-5 melanoma = tested on: SK-MEL-5 melanoma
# SK-OV-3 ovarian = tested on: SK-OV-3 ovarian
# SN12C renal = tested on: SN12C renal
# SNB-19 CNS = tested on: SNB-19 CNS
# SNB-75 CNS = tested on: SNB-75 CNS
# SR leukemia = tested on: SR leukemia
# SW-620 colon = tested on: SW-620 colon
# TK-10 renal = tested on: TK-10 renal
# U251 CNS = tested on: U251 CNS
# UO-31 renal = tested on: UO-31 renal
# ACHN renal = tested on: ACHN renal
# MDA-MB-435 = tested on: MDA-MB-435
# OVCAR-5 ovarian = tested on: OVCAR-5 ovarian
compound,measurement,setting,value
N#C/C(=C\c1ccc([N+](=O)[O-])s1)c1nc2cc(Br)ccc2s1,GI50,786-0 renal,2680 nM
same,TGI,786-0 renal,> 100 µM
same,GI50,A498 renal,8.05 µM
same,TGI,A498 renal,> 100 µM
same,GI50,A549 NSCLC,509 nM
same,TGI,A549 NSCLC,> 100 µM
same,GI50,BT-549 breast,165 nM
same,TGI,BT-549 breast,815 nM
same,GI50,CAKI-1 renal,218 nM
same,TGI,CAKI-1 renal,1010 nM
same,GI50,CCRF-CEM leukemia,161 nM
same,TGI,CCRF-CEM leukemia,> 100 µM
same,GI50,COLO 205 colon,269 nM
same,TGI,COLO 205 colon,844 nM
same,GI50,DU-145 prostate,719 nM
same,TGI,DU-145 prostate,> 100 µM
same,GI50,EKVX NSCLC,246 nM
same,TGI,EKVX NSCLC,1100 nM
same,GI50,HCT-116 colon,71.3 nM
same,TGI,HCT-116 colon,388 nM
same,GI50,HCT-15 colon,70.7 nM
same,TGI,HCT-15 colon,264 nM
same,GI50,HL-60(TB) leukemia,3.82 µM
same,TGI,HL-60(TB) leukemia,> 100 µM
same,GI50,HOP-62 NSCLC,314 nM
same,TGI,HOP-62 NSCLC,1680 nM
same,GI50,HOP-92 NSCLC,175 nM
same,TGI,HOP-92 NSCLC,451 nM
same,GI50,HS 578T breast,804 nM
same,TGI,HS 578T breast,9.28 µM
same,GI50,HT29 colon,1920 nM
same,TGI,HT29 colon,> 100 µM
same,GI50,IGROV1 ovarian,254 nM
same,TGI,IGROV1 ovarian,1140 nM
same,GI50,K-562 leukemia,56.1 nM
same,TGI,K-562 leukemia,> 40.6 µM
same,GI50,KM12 colon,399 nM
same,TGI,KM12 colon,2470 nM
same,GI50,LOX IMVI melanoma,171 nM
same,TGI,LOX IMVI melanoma,395 nM
same,GI50,M14 melanoma,142 nM
same,TGI,M14 melanoma,323 nM
same,GI50,MALME-3M melanoma,134 nM
same,TGI,MALME-3M melanoma,291 nM
same,GI50,MCF7 breast,305 nM
same,GI50,MDA-MB-231 breast,179 nM
same,TGI,MDA-MB-231 breast,430 nM
same,GI50,MOLT-4 leukemia,335 nM
same,TGI,MOLT-4 leukemia,> 35.5 µM
same,GI50,NCI-H226 lung,0.152 µM
same,TGI,NCI-H226 lung,0.335 µM
same,GI50,NCI-H23 lung,279 nM
same,TGI,NCI-H23 lung,1350 nM
same,GI50,NCI-H460 lung,286 nM
same,TGI,NCI-H460 lung,845 nM
same,GI50,NCI-H522 lung,206 nM
same,TGI,NCI-H522 lung,539 nM
same,GI50,NCI/ADR-RES ovarian,276 nM
same,TGI,NCI/ADR-RES ovarian,827 nM
same,GI50,OVCAR-3 ovarian,248 nM
same,TGI,OVCAR-3 ovarian,733 nM
same,GI50,OVCAR-8 ovarian,246 nM
same,TGI,OVCAR-8 ovarian,805 nM
same,GI50,PC-3 prostate,435 nM
same,TGI,PC-3 prostate,2540 nM
same,GI50,RPMI-8226 leukemia,246 nM
same,TGI,RPMI-8226 leukemia,0.856 µM
same,GI50,RXF 393 renal,325 nM
same,TGI,RXF 393 renal,2060 nM
same,GI50,SF-268 CNS,468 nM
same,TGI,SF-268 CNS,> 100 µM
same,TGI,SF-295 CNS,> 100 µM
same,GI50,SF-539 CNS,236 nM
same,TGI,SF-539 CNS,638 nM
same,GI50,SK-MEL-2 melanoma,236 nM
same,TGI,SK-MEL-2 melanoma,672 nM
same,GI50,SK-MEL-28 melanoma,346 nM
same,TGI,SK-MEL-28 melanoma,> 100 µM
same,GI50,SK-MEL-5 melanoma,167 nM
same,TGI,SK-MEL-5 melanoma,311 nM
same,GI50,SK-OV-3 ovarian,1640 nM
same,TGI,SK-OV-3 ovarian,> 100 µM
same,GI50,SN12C renal,201 nM
same,TGI,SN12C renal,576 nM
same,GI50,SNB-19 CNS,369 nM
same,TGI,SNB-19 CNS,> 100 µM
same,GI50,SNB-75 CNS,355 nM
same,GI50,SR leukemia,85.6 nM
same,TGI,SR leukemia,1770 nM
same,GI50,SW-620 colon,244 nM
same,TGI,SW-620 colon,1060 nM
same,GI50,TK-10 renal,918 nM
same,TGI,TK-10 renal,> 100 µM
same,GI50,U251 CNS,298 nM
same,TGI,U251 CNS,986 nM
same,GI50,UO-31 renal,142 nM
same,TGI,UO-31 renal,461 nM
N=C(N)c1ccc(-c2ccc(-c3ccc(Cl)c(Cl)c3)o2)nc1,GI50,786-0 renal,1990 nM
same,TGI,786-0 renal,3.83 µM
same,GI50,A498 renal,9.98 µM
same,TGI,A498 renal,28.5 µM
same,GI50,ACHN renal,1740 nM
same,TGI,ACHN renal,3.22 µM
same,GI50,BT-549 breast,1610 nM
same,TGI,BT-549 breast,3150 nM
same,GI50,CAKI-1 renal,1470 nM
same,TGI,CAKI-1 renal,2850 nM
same,GI50,DU-145 prostate,1890 nM
same,TGI,DU-145 prostate,3.62 µM
same,GI50,EKVX NSCLC,1860 nM
same,TGI,EKVX NSCLC,3760 nM
same,GI50,HCT-15 colon,1770 nM
same,TGI,HCT-15 colon,3530 nM
same,GI50,HL-60(TB) leukemia,2.24 µM
same,TGI,HL-60(TB) leukemia,5.09 µM
same,GI50,HOP-92 NSCLC,1410 nM
same,TGI,HOP-92 NSCLC,2970 nM
same,GI50,HS 578T breast,1890 nM
same,TGI,HS 578T breast,4.36 µM
same,GI50,IGROV1 ovarian,1860 nM
same,TGI,IGROV1 ovarian,3590 nM
same,GI50,MALME-3M melanoma,1780 nM
same,TGI,MALME-3M melanoma,3420 nM
same,GI50,MDA-MB-231 breast,1640 nM
same,TGI,MDA-MB-231 breast,3380 nM
same,GI50,MDA-MB-435,1780 nM
same,TGI,MDA-MB-435,3.25 µM
same,GI50,NCI-H226 lung,15.4 µM
same,TGI,NCI-H226 lung,49.9 µM
same,GI50,NCI-H23 lung,2020 nM
same,TGI,NCI-H23 lung,4590 nM
same,GI50,NCI-H522 lung,1860 nM
same,TGI,NCI-H522 lung,4360 nM
same,GI50,OVCAR-5 ovarian,1570 nM
same,TGI,OVCAR-5 ovarian,3.01 µM
same,GI50,PC-3 prostate,1720 nM
same,TGI,PC-3 prostate,3290 nM
same,GI50,RPMI-8226 leukemia,2330 nM
same,TGI,RPMI-8226 leukemia,5.19 µM
same,GI50,RXF 393 renal,1650 nM
same,TGI,RXF 393 renal,3580 nM
same,GI50,SF-268 CNS,2080 nM
same,TGI,SF-268 CNS,4.73 µM
same,GI50,SF-539 CNS,1630 nM
same,TGI,SF-539 CNS,3040 nM
same,GI50,SK-MEL-28 melanoma,1760 nM
same,TGI,SK-MEL-28 melanoma,3.34 µM
same,GI50,SK-MEL-5 melanoma,1740 nM
same,TGI,SK-MEL-5 melanoma,3150 nM
same,GI50,SK-OV-3 ovarian,1530 nM
same,TGI,SK-OV-3 ovarian,3.23 µM
same,GI50,SN12C renal,1740 nM
same,TGI,SN12C renal,3520 nM
same,GI50,SNB-19 CNS,1840 nM
same,TGI,SNB-19 CNS,3.7 µM
same,GI50,SNB-75 CNS,1350 nM
same,TGI,SNB-75 CNS,2690 nM
same,GI50,SR leukemia,559 nM
same,TGI,SR leukemia,> 100000 nM
same,GI50,TK-10 renal,2030 nM
same,TGI,TK-10 renal,3.77 µM
same,GI50,UO-31 renal,1500 nM
same,TGI,UO-31 renal,2970 nM

# Reference: PubChem BioAssay (NCI)
